Legend:
[1] = target: hGYS1 enzyme, glycogen synthesis in HeLa cells (Homo sapiens (Human), UniProt P13807); experiment: GYS1 cell based assay (glycogen synthesis in HeLa cells, Glucose-glo); conditions: starved HeLa cells, 24 h incubation; geometric mean of at least 2 assay runs; read-out: Cellular IC50
Source text: The GYS1 cell based assay is a bioluminescent assay that quantifies the glucose resulting from glycogen digestion; the quantified glucose is an indirect measure of GYS1 glycogen synthesis. Newly synthesized glycogen is digested using Glucoamylase; the resulting glucose is quantified by using the Glucose-glo assay kit from Promega. Glucose-glo works by coupling glucose oxidation and NADH production with a bioluminescent system that is activated with NADH. Glucose is oxidized by Glucose dehydrogenase and the reaction reduces NAD+ to NADH; NADH activates Reductase which reduces a pro-luciferin Reductase Substrate to luciferin. Luciferin is detected in a luciferase reaction using Ultra-Glo rLuciferase and ATP, and the luminesce produced is proportional to the glucose in the sample. The luminescence is measured as a single point read in a plate reader.
Compounds that inhibit the hGYS1 enzyme and, subsequently, the glycogen synthesis in cells, were tested using assay ready plates (white, clear bottom 384 well plates) in a final DMSO reaction volume of 1% DMSO. Compounds in the assay ready plates were mixed with media with no additives, except for 20 mM glucose prior to cell addition. HeLa cells were starved in media with no additives, except for 1× Glutamax for 24 h. Starved HeLa cells were plated, in a 1:1 ratio to the media in the assay ready plate and incubated for 24 h at 37° C. and 5% CO2. Cells were washed in 1×PBS buffer and lysed in lysis buffer containing 50% 1×PBS and 25% 0.3 N HCl of the final volume in the well or reaction volume; cells were incubated with lysis buffer for 10 minutes and quenched with the remaining 25% of the reaction volume that consisted of 450 mM Tris pH 8.0. Lysates were mixed in a 1:1 ratio with Glucoamylase in 100 mM Sodium Acetate buffer, pH 5.3; the mixture was incubated for 1 h at 37° C. The digested lysate was mixed in a 1:1 ratio with Glucose-glo detection mixture as per vendor recommendations (Luciferase detection buffer, Reductase, Reductase substrate, Glucose dehydrogenase, and NAD) in read-out plates (solid white 384-well plates) and incubated for 1 h at RT. The plates were read using a plate reader with luminescence capabilities. Each compound concentration Relative Luminescence Unit (RLU) was averaged and normalized to the average RLU of the positive and negative controls to obtain a percentage inhibition. The normalized data vs. concentration was plotted; to determine the half-maximal concentration (IC50), the Levenberg-Marquardt algorithm was used to fit a Hill equation to the dose response data.
(§1) Unless otherwise specified, IC50 values are reported as the geometric mean of at least 2 assay runs on separate days. […] Unless otherwise specified, IC50 values are reported as the geometric mean of at least two assay runs on separate days. Each run represents the average of a technical replicate, where each compound was assayed twice in the same plate.

human GYS2 = human GYS2 (Homo sapiens (Human), UniProt P54840); experiment: GYS2 coupled enzyme assay (PK/LDH); assay type: biochemical; conditions: recombinant hGYS2/GN1 protein; geometric mean of at least 2 assay runs
Source text: (§2) The GYS2 coupled enzyme assay is a kinetic biochemical assay that indirectly quantifies the rate of glycogen synthesis by coupling the conversion of GYS2 substrate UDP-glucose into UDP with downstream enzymatic reactions. UDP is released from UDP-glucose as glucose monomers are linked into the growing glycogen strand by GYS2. The coupled assay then proceeds with pyruvate kinase utilizing UDP and phospho (enol) pyruvate (PEP) to form pyruvate. Lactate dehydrogenase then converts pyruvate and NADH into lactate and NAD+. Oxidation of NADH to NAD+ can be measured continuously with a plate reader by quantifying the decrease in NADH absorbance at 340 nm over time.
Compounds that inhibit the hGYS2 enzyme and, subsequently, the downstream conversion of NADH to NAD+, were tested using assay ready plates (black, clear bottom 384 well plates) in a final DMSO reaction volume of 2.5% DMSO. The Assay Buffer contained 50 mM Tris pH 7.5, 2 mM MgCl2, and 100 mM KCl. Fresh stocks of BSA at a final concentration of 0.02% and TCEP 1 mM were added before splitting buffer into hGYS2 buffer and substrate buffer. To the hGYS2 buffer, rabbit liver glycogen was added at a final concentration of 0.2% glycogen. Glucose-6-Phosphate was added at 2 mM, recombinant hGYS2/GN1 protein was added at 200 nM to the substrate buffer, phosphoenolpyruvate (PEP) was added at 2 mM, UDP-Glucose was added at 2 mM, NADH was added at 0.6 mM, and Pyruvate Kinase/Lactate Dehydrogenase was added at 20 units/mL. The reaction was initiated by mixing hGYS2 buffer and substrate buffer at a 1:1 ratio. Both buffers were plated using a liquid dispensing device with hGYS2 buffer plated first followed by the substrate buffer. Plates were spun briefly to eliminate air bubbles and are immediately read in continuous mode at an absorbance of 340 nm, for 10 time points in one-minute increments, for a total of 10 minutes. The slope from these 10 time points was normalized to the positive and negative control wells.
as §1

human GYS1 = human GYS1 (Homo sapiens (Human), UniProt P13807); experiment: GYS1 coupled enzyme assay (PK/LDH); assay type: biochemical; conditions: recombinant hGYS1/GN1 protein; geometric mean of at least 2 assay runs
Source text: as §2, with “GYS1” for “GYS2”, “GYS1.” for “GYS2.”
Compounds that inhibit the hGYS1 enzyme and, subsequently, the downstream conversion of NADH to NAD+, were tested using assay ready plates (black, clear bottom 384 well plates) in a final DMSO reaction volume of 2.5% DMSO. The Assay Buffer contained 50 mM Tris pH 7.5, 2 mM MgCl2, and 100 mM KCl. Fresh stocks of BSA at a final concentration of 0.02% and TCEP at 1 mM were added before splitting buffer into hGYS1 buffer and substrate buffer. To the hGYS1 buffer, rabbit liver glycogen was added at a final concentration of 0.2% glycogen. Glucose-6-Phosphate was added at 1 mM, recombinant hGYS1/GN1 protein was added at 50 nM to the substrate buffer, phosphoenolpyruvate (PEP) was added at 2 mM, UDP-Glucose was added at 0.8 mM, NADH) was added at 0.6 mM, and Pyruvate Kinase/Lactate Dehydrogenase was added at 20 units/mL. The reaction was initiated by mixing hGYS1 buffer and substrate buffer at a 1:1 ratio. Both buffers were plated using a liquid dispensing device with hGYS1 buffer plated first followed by the substrate buffer. Plates were spun briefly to eliminate air bubbles and are immediately read in continuous mode at an absorbance of 340 nm, for 10 time points in one-minute increments, for a total of 10 minutes. The slope from these 10 time points was normalized to the positive and negative control wells.
Unless otherwise specified, IC50 values are reported as the geometric mean of at least 2 assay runs on separate days. Each run represents the average of a technical replicate, where each compound was assayed twice in the same plate.

hGYS1 enzyme, glycogen synthesis in HeLa cells, sequence (P13807 whole entry): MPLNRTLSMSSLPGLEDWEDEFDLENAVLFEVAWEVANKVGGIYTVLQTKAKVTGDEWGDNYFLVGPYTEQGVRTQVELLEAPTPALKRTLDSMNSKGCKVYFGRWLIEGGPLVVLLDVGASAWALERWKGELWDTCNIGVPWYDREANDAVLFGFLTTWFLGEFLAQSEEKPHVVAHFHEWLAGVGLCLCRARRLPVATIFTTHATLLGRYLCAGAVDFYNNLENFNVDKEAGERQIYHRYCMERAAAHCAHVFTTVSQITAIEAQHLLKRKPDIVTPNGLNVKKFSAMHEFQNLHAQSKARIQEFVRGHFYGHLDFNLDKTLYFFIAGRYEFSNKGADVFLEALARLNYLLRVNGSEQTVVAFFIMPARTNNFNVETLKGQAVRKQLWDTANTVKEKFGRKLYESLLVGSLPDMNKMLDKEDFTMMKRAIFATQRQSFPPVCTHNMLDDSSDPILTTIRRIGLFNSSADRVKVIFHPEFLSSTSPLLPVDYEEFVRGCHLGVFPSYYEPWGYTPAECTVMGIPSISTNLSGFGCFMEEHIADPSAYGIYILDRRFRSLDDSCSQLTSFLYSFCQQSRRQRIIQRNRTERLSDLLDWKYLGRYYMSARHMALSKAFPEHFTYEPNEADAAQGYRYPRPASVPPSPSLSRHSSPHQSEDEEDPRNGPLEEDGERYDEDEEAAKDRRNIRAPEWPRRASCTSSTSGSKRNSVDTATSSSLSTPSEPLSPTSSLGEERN
human GYS1, sequence (P13807 whole entry): as above
human GYS1, sequence (P46976 whole entry partner): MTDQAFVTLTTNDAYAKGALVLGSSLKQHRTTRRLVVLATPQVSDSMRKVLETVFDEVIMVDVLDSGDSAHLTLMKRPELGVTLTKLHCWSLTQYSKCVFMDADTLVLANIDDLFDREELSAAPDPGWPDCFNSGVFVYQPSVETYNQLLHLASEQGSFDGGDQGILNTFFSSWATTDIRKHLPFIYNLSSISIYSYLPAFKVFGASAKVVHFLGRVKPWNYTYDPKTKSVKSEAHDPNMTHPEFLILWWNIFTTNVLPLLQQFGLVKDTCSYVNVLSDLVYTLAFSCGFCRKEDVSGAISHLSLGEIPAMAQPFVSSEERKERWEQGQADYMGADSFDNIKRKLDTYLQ
human GYS2, sequence (P54840 whole entry): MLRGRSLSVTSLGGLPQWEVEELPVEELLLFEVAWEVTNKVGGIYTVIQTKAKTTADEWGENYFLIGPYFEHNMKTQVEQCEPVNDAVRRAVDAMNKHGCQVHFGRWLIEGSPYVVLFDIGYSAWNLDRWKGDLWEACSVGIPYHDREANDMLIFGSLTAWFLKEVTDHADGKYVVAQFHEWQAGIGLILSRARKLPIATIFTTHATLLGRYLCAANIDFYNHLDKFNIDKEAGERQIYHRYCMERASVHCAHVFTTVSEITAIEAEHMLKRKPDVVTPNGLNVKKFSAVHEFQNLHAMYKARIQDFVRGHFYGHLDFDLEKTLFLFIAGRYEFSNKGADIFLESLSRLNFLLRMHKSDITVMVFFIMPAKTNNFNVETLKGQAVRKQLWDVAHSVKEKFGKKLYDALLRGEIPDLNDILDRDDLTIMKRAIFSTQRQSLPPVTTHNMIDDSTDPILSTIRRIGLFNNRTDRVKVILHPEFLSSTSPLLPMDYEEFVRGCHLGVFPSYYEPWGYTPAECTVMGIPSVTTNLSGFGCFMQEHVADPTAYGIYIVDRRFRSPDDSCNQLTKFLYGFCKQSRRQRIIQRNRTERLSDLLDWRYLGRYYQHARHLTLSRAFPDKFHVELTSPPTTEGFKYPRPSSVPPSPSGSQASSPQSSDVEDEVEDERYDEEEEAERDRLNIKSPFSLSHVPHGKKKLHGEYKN
human GYS2, sequence (P46976 whole entry partner): as the sequence (P46976 whole entry partner) above

Row | SMILES | IC50 [1] | IC50 (human GYS2) | IC50 (human GYS1)
1 | Cc1ccccc1[C@H](NC(=O)[C@@H]1CCC[C@@H]1C(=O)O)c1ccc(C(C)C)cn1 [Compound 22, (1S,2R)-2-(((S)-(5-isopropylpyridin-2-yl)(o-tolyl)methyl)carbamoyl)cyclopentane-1-carboxylic acid] | 13.9 µM | 66.7 µM | 1.27 µM
2 | O=C(O)[C@H]1CCC[C@H]1C(=O)N[C@@H](c1ccccc1)c1ccc(C2CC2)c(F)c1 [Compound 17, (1S,2R)-2-(((S)-(4-cyclopropyl-3-fluorophenyl)(phenyl)methyl)carbamoyl)cyclopentane-1-carboxylic acid] | 27.3 µM | > 100 µM | 1.58 µM
3 | O=C(O)[C@H]1CCC[C@H]1C(=O)N[C@@H](c1ccccc1)c1ccc(C2CCC2)c(F)c1 [Compound 18, (1S,2R)-2-(((S)-(4-cyclobutyl-3-fluorophenyl)(phenyl)methyl)carbamoyl)cyclopentane-1-carboxylic acid] | 16.6 µM | 28.6 µM | 0.384 µM
4 | CC(C)c1c(F)cc([C@@H](NC(=O)[C@@H]2CCC[C@@H]2C(=O)O)c2ccccc2)cc1F [Compound 8, (1S,2R)-2-(((S)-(3,5-difluoro-4-isopropylphenyl)(phenyl)methyl)carbamoyl)cyclopentane-1-carboxylic acid] | 3.93 µM | > 100 µM | 0.239 µM

Further lines, results first:

Row | IC50 [1] | IC50 (human GYS2) | IC50 (human GYS1) | SMILES
5 | 3.69 µM | 72.8 µM | 0.236 µM | CC(C)c1ccc([C@@H](NC(=O)[C@@H]2CCC[C@@H]2C(=O)O)c2ccccc2)cc1F [Compound 37, (1S,2R)-2-(((S)-(3-fluoro-4-isopropylphenyl)(phenyl)methyl)carbamoyl)cyclopentane-1-carboxylic acid]
6 | 46.3 µM | > 100 µM | 1.48 µM | CC(C)c1ccc([C@@H](NC(=O)[C@@H]2CCC[C@@H]2C(=O)O)c2ccn[nH]2)cc1F [Compound 27, (1S,2R)-2-(((R)-(3-fluoro-4-isopropylphenyl)(1H-pyrazol-5-yl)methyl)carbamoyl)cyclopentane-1-carboxylic acid]
7 | 5.36 µM | 8.48 µM | 0.166 µM | Cc1ccccc1[C@H](NC(=O)[C@@H]1CCC[C@@H]1C(=O)O)c1ccc(C(C)C)c(F)c1 [Compound 23, (1S,2R)-2-(((R)-(3-fluoro-4-isopropylphenyl)(o-tolyl)methyl)carbamoyl)cyclopentane-1-carboxylic acid]

From US20260021085A1, “CYCLOALKYL CARBOXYLIC ACID DERIVATIVES AS INHIBITORS OF GLYCOGEN SYNTHASE 1 (GYS1) AND METHODS OF USE THEREOF” (Maze Therapeutics, Inc., priority 2022, published 2026)
